ChEMBL document CHEMBL6071152, “Design, synthesis, and biological evaluation of oridonin derivatives as novel NLRP3 inflammasome inhibitors for the treatment of acute lung injury” (Eur J Med Chem, 2024)
The source made the active and inactive calls. No cut-off for these calls is given here.

Key:
[1] = target: NACHT, LRR and PYD domains-containing protein 3 (Mus musculus) (UniProt Q8R4B8); assay: Inhibition of NLRP3 inflammasome priming in ICR mouse BMDM assessed as inhibition of pro-caspase-1 protein expression in cell lysate at 1 uM treated for 3 hrs with LPS followed by incubation with compound for 1 hr and later stimulated with ATP for 0.5 hrs by western blot analysis; assay type: subcellular; settings: time 1.5 hrs
[2] = target: NACHT, LRR and PYD domains-containing protein 3 (Mus musculus) (UniProt Q8R4B8); assay: Inhibition of NLRP3 inflammasome activation in ICR mouse BMDM assessed as inhibition of LPS/ATP-stimulated IL-1 beta expression in cell supernatant at 1 uM treated for 3 hrs with LPS followed by incubation with compound for 1 hr and later stimulated with ATP for 0.5 hrs by western blot analysis; assay type: cell-based; settings: time 1.5 hrs
[3] = target: NLR family CARD domain-containing protein 4 (Mus musculus) (UniProt Q3UP24); assay: Inhibition of NLRC4 inflammasome activation in ICR mouse BMDM assessed as inhibition of FLA-ST-stimulated IL-1 beta expression in cell supernatant at 1 uM treated for 3 hrs with LPS followed by incubation with compound for 1 hr and later stimulated with FLA-ST for 2 hrs by western blot analysis; assay type: cell-based
[4] = target: NACHT, LRR and PYD domains-containing protein 3 (Mus musculus) (UniProt Q8R4B8); assay: Inhibition of NLRP3 inflammasome activation in ICR mouse BMDM assessed as inhibition of LPS/nigericin-stimulated IL-1 beta secretion in cell supernatant at 1 uM treated for 3 hrs with LPS followed by incubation with compound for 1 hr and later stimulated with nigericin for 0.5 hrs by ELISA; assay type: cell-based; settings: time 1.5 hrs
Mus musculus [5] = assay: (§1) Anti-inflammatory activity against LPS-stimulated acute lung injury C57BL/6 mouse model assessed as decrease in IL-18 mRNA expression in right lung at 0.1 to 1 mg/kg, ip treated for 3 days and on third day administered with LPS at 30 mins post-compound challenge and measured after 12 hrs by RT-qPCR analysis; assay type: functional, organism-based; settings: dose 0.1-1 mg/kg, time 3.5 day
[6] = target: T1, Interferon-inducible protein AIM2 (Mus musculus) (UniProt Q91VJ1); assay: Inhibition of AIM2 inflammasome activation in ICR mouse BMDM assessed as inhibition of poly(dA:dT)-stimulated IL-1 beta secretion in cell supernatant at 1 uM treated for 3 hrs with LPS followed by incubation with compound for 1 hr and later cells transfected with poly(dA:dT) for 4 hrs by ELISA; assay type: cell-based; settings: time 5.0 hrs
T1 sequence (whole entry): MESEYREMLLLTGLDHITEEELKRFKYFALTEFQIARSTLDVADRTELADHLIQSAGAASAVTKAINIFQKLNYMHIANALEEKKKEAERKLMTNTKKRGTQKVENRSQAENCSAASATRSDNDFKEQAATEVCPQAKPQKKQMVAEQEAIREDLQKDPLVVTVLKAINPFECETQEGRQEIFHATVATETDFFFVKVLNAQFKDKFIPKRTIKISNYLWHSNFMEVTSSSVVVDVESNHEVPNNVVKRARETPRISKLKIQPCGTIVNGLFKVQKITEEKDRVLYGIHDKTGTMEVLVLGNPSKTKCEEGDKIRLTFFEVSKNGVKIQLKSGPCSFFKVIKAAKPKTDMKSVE

Mus musculus [7] = assay: as §1, with “in caspase-1” for “in IL-18 mRNA”, “to 10” for “to 1”, “by western blot” for “by RT-qPCR”; assay type: functional, organism-based; settings: dose 0.1-10 mg/kg, time 3.5 day
Mus musculus [8] = assay: Anti-inflammatory activity against LPS-stimulated acute lung injury C57BL/6 mouse model assessed as active animal at 10 mg/kg, ip treated for 3 days and on third day administered with LPS at 30 mins post-compound challenge; assay type: functional, organism-based; settings: time 3.0 day

Chain of NACHT, LRR and PYD domains-containing protein 3 (Mus musculus) (Q8R4B8 whole entry, the tested form may be a part): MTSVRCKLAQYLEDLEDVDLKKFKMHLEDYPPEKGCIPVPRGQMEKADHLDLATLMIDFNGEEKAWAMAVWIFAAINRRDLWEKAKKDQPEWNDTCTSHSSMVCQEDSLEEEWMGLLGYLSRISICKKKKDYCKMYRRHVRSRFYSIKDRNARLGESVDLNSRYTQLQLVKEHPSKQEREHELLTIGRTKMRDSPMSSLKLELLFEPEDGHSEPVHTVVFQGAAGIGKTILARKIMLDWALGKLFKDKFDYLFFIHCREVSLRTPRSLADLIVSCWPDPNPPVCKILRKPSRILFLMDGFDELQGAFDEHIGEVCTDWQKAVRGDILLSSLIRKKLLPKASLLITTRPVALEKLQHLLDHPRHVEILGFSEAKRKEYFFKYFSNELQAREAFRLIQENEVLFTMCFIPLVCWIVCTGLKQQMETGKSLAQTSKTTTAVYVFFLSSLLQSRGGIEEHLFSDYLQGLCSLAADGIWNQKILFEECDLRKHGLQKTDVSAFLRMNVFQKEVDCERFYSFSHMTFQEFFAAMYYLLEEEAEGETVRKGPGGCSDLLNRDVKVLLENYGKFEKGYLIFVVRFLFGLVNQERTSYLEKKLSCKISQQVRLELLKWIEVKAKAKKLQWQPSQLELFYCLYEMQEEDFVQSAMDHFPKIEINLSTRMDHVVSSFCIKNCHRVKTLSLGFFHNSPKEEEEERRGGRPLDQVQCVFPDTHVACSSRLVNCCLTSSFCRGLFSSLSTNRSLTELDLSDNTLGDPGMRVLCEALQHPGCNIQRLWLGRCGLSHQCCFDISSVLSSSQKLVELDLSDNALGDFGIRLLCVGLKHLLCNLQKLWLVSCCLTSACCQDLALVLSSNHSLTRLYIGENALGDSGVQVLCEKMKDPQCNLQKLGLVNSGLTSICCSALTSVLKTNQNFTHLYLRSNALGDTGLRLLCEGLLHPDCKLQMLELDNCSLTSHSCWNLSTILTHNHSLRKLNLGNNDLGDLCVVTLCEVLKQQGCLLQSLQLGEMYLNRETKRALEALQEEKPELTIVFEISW
Chain of NLR family CARD domain-containing protein 4 (Mus musculus) (Q3UP24 whole entry, the tested form may be a part): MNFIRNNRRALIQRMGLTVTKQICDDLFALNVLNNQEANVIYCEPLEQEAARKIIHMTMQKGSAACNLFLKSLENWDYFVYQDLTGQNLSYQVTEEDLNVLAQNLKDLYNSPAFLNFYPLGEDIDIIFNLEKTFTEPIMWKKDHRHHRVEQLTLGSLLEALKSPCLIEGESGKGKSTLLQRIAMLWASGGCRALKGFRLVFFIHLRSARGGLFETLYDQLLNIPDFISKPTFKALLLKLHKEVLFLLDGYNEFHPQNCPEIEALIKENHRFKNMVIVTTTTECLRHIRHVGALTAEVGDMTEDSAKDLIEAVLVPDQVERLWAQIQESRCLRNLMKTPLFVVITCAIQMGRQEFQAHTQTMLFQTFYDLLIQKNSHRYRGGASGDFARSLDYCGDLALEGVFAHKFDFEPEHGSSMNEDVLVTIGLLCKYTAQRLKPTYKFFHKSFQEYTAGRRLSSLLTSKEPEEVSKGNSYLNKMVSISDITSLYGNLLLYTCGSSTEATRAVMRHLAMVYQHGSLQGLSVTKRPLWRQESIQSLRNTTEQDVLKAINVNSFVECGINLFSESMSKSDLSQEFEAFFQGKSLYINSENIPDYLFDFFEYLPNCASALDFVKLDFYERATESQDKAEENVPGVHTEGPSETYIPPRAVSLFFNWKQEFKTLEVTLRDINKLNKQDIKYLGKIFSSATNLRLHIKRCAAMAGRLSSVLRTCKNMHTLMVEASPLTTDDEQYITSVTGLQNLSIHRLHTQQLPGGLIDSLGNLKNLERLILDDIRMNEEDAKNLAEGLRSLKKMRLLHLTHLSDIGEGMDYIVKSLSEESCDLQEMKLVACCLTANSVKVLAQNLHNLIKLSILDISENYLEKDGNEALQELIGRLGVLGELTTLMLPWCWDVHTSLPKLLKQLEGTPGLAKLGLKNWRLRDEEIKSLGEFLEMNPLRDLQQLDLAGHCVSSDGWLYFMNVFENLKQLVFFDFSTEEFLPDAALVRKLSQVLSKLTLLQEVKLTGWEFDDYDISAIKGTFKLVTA

inhibition [1]: inactive | inhibition [2]: Active | inhibition [3]: inactive | inhibition [4]: Active | inhibition [6]: inactive
SMILES: C=C1C(=O)[C@]23[C@H](OC(=O)Nc4ccc(F)cc4)[C@H]1CC[C@H]2[C@]12C=CCC(C)(C)[C@H]1[C@H](O)[C@@]3(O)OC2
Activity (Mus musculus [5]): Dose-Dependent Effect | Activity (Mus musculus [7]): Active | Activity (Mus musculus [8]): Active
